Assay results published in patent US5227488A, “Aza spiro decane and use thereof in treating CNS disorders” (Novo Nordisk A/S, priority 1989, dated 1993).
Counter-ions that a name gives are not always drawn.

How the values were obtained:
5-HT1A = target: T1, 5-HT1A (Rattus norvegicus, UniProt P19327); assay: Receptor binding in vitro, 5-HT1A (3H-8OH-DPAT displacement); conditions: ligand 3H-8OH-DPAT 2 nM; rat frontal cortex, hippocampus
T1 construct: from tissue; host or cells: rat brain: frontal cortex, hippocampus
T1 sequence (P19327 1-422): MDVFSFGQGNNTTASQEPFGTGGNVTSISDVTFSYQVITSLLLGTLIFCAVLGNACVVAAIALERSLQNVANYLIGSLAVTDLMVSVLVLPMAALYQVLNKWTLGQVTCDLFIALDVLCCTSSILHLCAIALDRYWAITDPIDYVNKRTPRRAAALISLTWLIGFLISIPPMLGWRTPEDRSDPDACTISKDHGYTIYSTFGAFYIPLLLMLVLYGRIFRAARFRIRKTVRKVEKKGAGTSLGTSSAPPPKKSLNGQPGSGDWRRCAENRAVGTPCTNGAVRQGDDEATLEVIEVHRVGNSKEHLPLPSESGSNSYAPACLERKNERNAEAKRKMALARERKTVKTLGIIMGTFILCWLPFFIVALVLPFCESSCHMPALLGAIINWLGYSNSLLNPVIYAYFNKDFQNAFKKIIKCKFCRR
Procedure: (§1) Compounds of the general formula (I) were tested for binding to 5-HT receptors and compared with known ligands by the following procedure:
(§2) Rat brain tissue (as specified in the table hereinafter) was homogenized using a Polytron homogenizer. The final pellet was resuspended in 125 vol (tissue wet weight) of buffer.
(§3) In all assays incubation was carried out for 10 min at 37° C.
(§4) Detailed conditions for the receptor binding assay in vitro are tabulated below.

5-HT1B = target: T2, 5-HT1B (Rattus norvegicus, UniProt P28564); assay: Receptor binding in vitro, 5-HT1B (3H-5-HT displacement, with 50 nM 8-OH-DPAT)
T2 construct: from tissue; host or cells: rat brain: frontal cortex, hippocampus
Procedure: as §1, §2, §3
Labelling of the 5-HT1B receptor was complicated by the fact that the available ligand ^3 H-5-HT is nonselective.
as §4

5-HT2 = target: T3, 5-HT2 (Rattus norvegicus, UniProt P14842); assay: Receptor binding in vitro, 5-HT2 (3H-ketanserin displacement)
T3 construct: from tissue; host or cells: rat brain: frontal cortex, striatum
Procedure: as §1, §2, §3, §4

Adenylatcyclase = assay: Adenylatcyclase; assay type: biochemical
5-HT1A receptors = conditions: background; cited from earlier work
5-HT1 recognition sites = conditions: background; Ann. Reports Med. Chem. 21 (1986), 42-43; cited from earlier work
5-HT2 receptor subtype = conditions: background; cited from earlier work

T3 sequence (P14842 whole entry): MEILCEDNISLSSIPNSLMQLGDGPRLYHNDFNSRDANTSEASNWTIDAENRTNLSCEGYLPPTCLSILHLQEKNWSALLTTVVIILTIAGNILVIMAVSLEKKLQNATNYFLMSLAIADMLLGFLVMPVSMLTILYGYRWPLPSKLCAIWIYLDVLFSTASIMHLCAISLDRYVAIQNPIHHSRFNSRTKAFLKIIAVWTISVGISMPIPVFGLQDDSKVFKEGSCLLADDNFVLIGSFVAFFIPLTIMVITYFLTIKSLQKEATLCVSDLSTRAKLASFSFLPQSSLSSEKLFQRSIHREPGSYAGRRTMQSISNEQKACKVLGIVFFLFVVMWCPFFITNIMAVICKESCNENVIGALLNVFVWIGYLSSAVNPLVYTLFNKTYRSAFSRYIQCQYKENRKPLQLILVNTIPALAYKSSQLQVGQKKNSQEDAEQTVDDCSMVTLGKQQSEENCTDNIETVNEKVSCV
T2 sequence (P28564 whole entry): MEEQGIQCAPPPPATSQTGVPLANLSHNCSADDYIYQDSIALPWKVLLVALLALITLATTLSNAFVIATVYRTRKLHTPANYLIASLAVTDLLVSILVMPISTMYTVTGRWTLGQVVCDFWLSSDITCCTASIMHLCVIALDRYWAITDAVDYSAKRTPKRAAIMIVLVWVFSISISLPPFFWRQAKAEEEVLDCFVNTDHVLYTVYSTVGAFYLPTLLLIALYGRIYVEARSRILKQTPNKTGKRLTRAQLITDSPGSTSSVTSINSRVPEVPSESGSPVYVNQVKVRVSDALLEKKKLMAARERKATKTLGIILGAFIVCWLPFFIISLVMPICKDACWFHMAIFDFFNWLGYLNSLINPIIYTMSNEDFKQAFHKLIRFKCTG

| IC50 (5-HT1A) | IC50 (5-HT1B) | IC50 (5-HT2) | IC50 (Adenylatcyclase) | Compound | affinity for 5-HT1A receptors (in words) (5-HT1A receptors) | affinity for 5-HT1 recognition sites (in words) (5-HT1 recognition sites) | discrimination between the 5-HT1A and 5-HT1B receptor subtypes (in words) (5-HT1 recognition sites) | affinity for the 5-HT2 receptor subtype (in words) (5-HT2 receptor subtype) |
| --- | --- | --- | --- | --- | --- | --- | --- | --- |
| 40 nM | 233 nM | 613 nM | 10 nM | O=C1CC2(CCCC2)CC(=O)N1CCCCNCCSc1c[nH]c2ccccc12 [Example 3, 1-(4-(7,9-Dioxo-8-azaspiro[4,5]decan-8-yl)butyl-1-amino)2-(3-indolylthio)-ethane, oxalate] | – | – | – | – |
| 33 nM | > 1000 nM | > 1000 nM | 30 nM | COc1ccc2[nH]cc(SCCNCCCCN3C(=O)CC4(CCCC4)CC3=O)c2c1 [Example 8, 1-(4-(7,9-Dioxo-8-azaspiro[4,5]decan-8-yl)butyl-1-amino)-2-(5-methoxy-3-indolylthio)-ethane, oxalate] | – | – | – | – |
| 0.6 nM | > 1000 nM | > 1000 nM | 1.8 nM | COc1ccc2[nH]cc(OCCNCCCCN3C(=O)CC4(CCCC4)CC3=O)c2c1 [Example 23, 1-(4-(7,9-Dioxo-8-azaspiro[4,5]decan-8-yl)butyl-1-amino)-2-(5-methoxy-3-indolyloxy)-ethane, oxalate] | – | – | – | – |
| 6.9 nM | > 1000 nM | > 1000 nM | 4 nM | COc1ccc2[nH]cc(OCCNCCCCN3C(=O)C4C5C=CC(C6C=CC65)C4C3=O)c2c1 (stereo not drawn) [Example 24, 1-(4-(1,3-Dioxo-4,7-etheno-1,3,3a,4,4a,6a,7,7a-octahydro-2H-cyclobut[f]isoindol-2-yl)butyl-1-amino)-2-(5-methoxy-3-indolyloxy)-ethane, oxalate] | – | – | – | – |
| – | – | – | 125 nM | O=C1CC2(CCCC2)CC(=O)N1CCCCN1CCN(c2ncccn2)CC1 [buspirone, reference compound] | – | – | – | – |

Second part, the compound before the results:

| Compound | IC50 (5-HT1A) | IC50 (5-HT1B) | IC50 (5-HT2) | IC50 (Adenylatcyclase) | affinity for 5-HT1A receptors (in words) (5-HT1A receptors) | affinity for 5-HT1 recognition sites (in words) (5-HT1 recognition sites) | discrimination between the 5-HT1A and 5-HT1B receptor subtypes (in words) (5-HT1 recognition sites) | affinity for the 5-HT2 receptor subtype (in words) (5-HT2 receptor subtype) |
| --- | --- | --- | --- | --- | --- | --- | --- | --- |
| O=C1c2ccccc2S(=O)(=O)N1CCCCNCCSc1c[nH]c2ccccc12 [Example 6, 1-(4-(o-Sulfobenzimido)butyl-1-amino)-2-(3-indolylthio)ethane, oxalate] | 34 nM | > 1000 nM | > 1000 nM | 20 nM | – | – | – | – |
| CCCN(CCC)C1CCc2cccc(O)c2C1 (stereo not drawn) [Example 8-OH-DPAT, 8-hydroxy-2-(di-n-propylamino)tetralin, reference compound] | – | – | > 1000 nM | 80 nM | binds with high affinity | – | – | – |
| COc1ccc2[nH]cc(SCCNCCCCN3C(=O)c4ccccc4C3=O)c2c1 [Example 9, 1-(4-Phthalimidobutyl-1-amino)-2-(5-methoxy-3-indolylthio)-ethane, oxalate] | 20 nM | 156 nM | > 1000 nM | 140 nM | – | – | – | – |
| COc1ccc2[nH]cc(SCCNCCCCN3C(=O)C4C5C=CC(C6CC56)C4C3=O)c2c1 (stereo not drawn) [Example 10] | 8 nM | > 1000 nM | > 1000 nM | 23 nM | – | – | – | – |
| COc1ccc2[nH]cc(SCCNCCCCN3C(=O)C4CC=CCC4C3=O)c2c1 (stereo not drawn) [Example 12, 1-(4-(Cis-4-cyclohexen-1,2-dicarboximido)butyl-1-amino)-2-(5-methoxy-3-indolylthio)-ethane, oxalate] | 17 nM | > 1000 nM | > 1000 nM | 240 nM | – | – | – | – |
| COc1ccc2[nH]cc(C3=CCNCC3)c2c1 [RU 24969] | – | – | – | – | – | high affinity | only limited capacity to discriminate | – |
| CC1(C)CC(=O)N(CCCCN2CCN(c3ncccn3)CC2)C(=O)C1 [gepirone, reference compound] | – | – | > 1000 nM | 1000 nM | – | – | – | – |
| O=C1c2ccccc2S(=O)(=O)N1CCCCN1CCN(c2ncccn2)CC1 [ipsapirone, reference compound] | 25 nM | > 1000 nM | > 1000 nM | 850 nM | – | – | – | – |
| O=C(c1ccc(F)cc1)C1CCN(CCn2c(=O)[nH]c3ccccc3c2=O)CC1 [ketanserin] | – | – | – | – | – | – | – | high affinity |
